Our source for the Ki values is patent publication US12559529B2, “NPY2 receptor agonists” (Boehringer Ingelheim International GmbH, priority 2019, dated 2026).

For this assay, the target named is T1, Human Neuropeptide Y2 Receptor (Homo sapiens, UniProt P49146).
T1 construct: purchased CHEMICON HTS066M
T1 sequence (P49146 1-381): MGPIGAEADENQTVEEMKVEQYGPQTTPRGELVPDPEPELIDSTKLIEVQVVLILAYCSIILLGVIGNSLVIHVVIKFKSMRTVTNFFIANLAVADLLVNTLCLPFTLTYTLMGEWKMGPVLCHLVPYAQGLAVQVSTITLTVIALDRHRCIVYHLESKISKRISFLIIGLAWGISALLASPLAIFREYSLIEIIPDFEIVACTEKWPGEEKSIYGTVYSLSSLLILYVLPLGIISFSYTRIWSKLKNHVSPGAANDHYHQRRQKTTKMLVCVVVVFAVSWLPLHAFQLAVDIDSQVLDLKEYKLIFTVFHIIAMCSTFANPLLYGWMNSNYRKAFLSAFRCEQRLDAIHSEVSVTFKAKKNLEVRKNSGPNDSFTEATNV
As to the kind of experiment: Radioligand binding competition assay (RLB). The following applies: Table 3; human 125I-PYY (1-36) 0.02 nM, Y2 receptor membranes; read-out: Ki. Summed up: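 Peptide dilutions made in pH 7.4 HEPES assay buffer with 0.2% ovalbumin; human Y2 receptor membranes added at 0.5 μg protein/well; plates shaken 2 h at room temperature; reaction stopped by vacuum filtration onto PEI-treated GF/C filters with ice-cold high-salt washes; radioactivity counted by scintillation.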

*1 amine or outer side, *2 acyl side, *3 side chain or, on linkers, in order; H or OH if unused. Where a SMILES comes first, the peptide text is derived from it. Side-chain parts run from the residue outwards. The star is where a group is joined. C18 diacid = O=C(O)CCCCCCCCCCCCCCCCC(=O)*; γGlu = O=C(O)[C@H](CCC(=O)[*:2])N[*:1]; Isovaleryl = CC(C)CC(=O)*; AEEA = NCCOCCOCC(=O)O

`CC[C@H](C)[C@H](NC(=O)[C@H](CCCCNC(=O)COCCOCCNC(=O)COCCOCCNC(=O)CC[C@H](NC(=O)CCCCCCCCCCCCCCCCC(=O)O)C(=O)O)NC(=O)[C@H](CCC(=O)O)NC(=O)[C@@H]1CCCN1C(=O)[C@H](C)NC(=O)CC(C)C)C(=O)N[C@@H](CCC(=O)O)C(=O)N[C@@H](CCC(=O)O)C(=O)N[C@@H](CCC(=O)O)C(=O)N[C@@H](C)C(=O)N[C@@H](CO)C(=O)N1CCC[C@H]1C(=O)N[C@@H](CCC(=O)O)C(=O)N[C@@H](CCC(=O)O)C(=O)N[C@@H](CC(C)C)C(=O)N[C@@H](CCC(N)=O)C(=O)N[C@@H](CCCNC(=N)N)C(=O)N[C@@H](Cc1ccc(O)cc1)C(=O)N[C@@H](Cc1ccc(O)cc1)C(=O)N[C@H](C(=O)N[C@@H](CO)C(=O)N[C@@H](CC(C)C)C(=O)N[C@@H](CCCNC(=N)N)C(=O)N[C@@H](Cc1c[nH]cn1)C(=O)N[C@@H](Cc1ccc(O)cc1)C(=O)N[C@@H](Cc1ccc(O)cc1)C(=O)N[C@@H](CC(N)=O)C(=O)N[C@@H](Cc1c[nH]c2ccccc12)C(=O)N[C@@H](CC(C)C)C(=O)N[C@H](C(=O)N[C@@H](CCCNC(=N)N)C(=O)N[C@@H](CCC(N)=O)C(=O)N[C@@H](CCCNC(=N)N)C(=O)N[C@@H](Cc1ccc(O)cc1)C(N)=O)[C@@H](C)O)C(C)C` [Compound 210, N{alpha-4}-(3-methylbutanoyl)-N{epsilon-7}-[2-(2-{2-[2-(2-{2-[(4S)-4-carboxy-4-(17-carboxyheptadecanamido)butanamido]ethoxy}ethoxy)acetamido]ethoxy}ethoxy)acetamido]-[4A,7K,8I,9E,11E,18Q,22V,28Y,30W,31L]hPYY (4-36)] (Isovaleryl-APEK([AEEA-AEEA-γGlu-C18 diacid])IEEEASPEELQRYYVSLRHYYNWLTRQRY-NH2): the Ki worked out at 10.5 nM.

As for `CC(C)CC(=O)N[C@@H](C)C(=O)N1CCC[C@H]1C(=O)N[C@@H](CCC(=O)O)C(=O)N[C@@H](CCCCNC(=O)COCCOCCNC(=O)COCCOCCNC(=O)CC[C@H](NC(=O)CCCCCCCCCCCCCCCCC(=O)O)C(=O)O)C(=O)N1CCC[C@H]1C(=O)N[C@@H](CCC(=O)O)C(=O)N[C@@H](CCC(=O)O)C(=O)N[C@@H](CC(=O)O)C(=O)N[C@H](C(=O)N[C@@H](C)C(=O)N1CCC[C@H]1C(=O)N[C@@H](CCC(=O)O)C(=O)N[C@@H](CCC(=O)O)C(=O)N[C@@H](CC(C)C)C(=O)N[C@@H](CCC(N)=O)C(=O)N[C@@H](CCCNC(=N)N)C(=O)N[C@@H](Cc1ccc(O)cc1)C(=O)N[C@@H](Cc1ccc(O)cc1)C(=O)N[C@H](C(=O)N[C@@H](CO)C(=O)N[C@@H](CC(C)C)C(=O)N[C@@H](CCCNC(=N)N)C(=O)N[C@@H](Cc1c[nH]cn1)C(=O)N[C@@H](Cc1ccc(O)cc1)C(=O)N[C@@H](Cc1ccc(O)cc1)C(=O)N[C@@H](CC(N)=O)C(=O)N[C@@H](Cc1c[nH]c2ccccc12)C(=O)N[C@@H](CC(C)C)C(=O)N[C@H](C(=O)N[C@@H](CCCNC(=N)N)C(=O)N[C@@H](CCC(N)=O)C(=O)N[C@@H](CCCNC(=N)N)C(=O)N[C@@H](Cc1ccc(O)cc1)C(N)=O)[C@@H](C)O)C(C)C)[C@@H](C)O` [Compound 212, N{alpha-4}-(3-methylbutanoyl)-N{epsilon-7}-[2-(2-{2-[2-(2-{2-[(4S)-4-carboxy-4-(17-carboxyheptadecanamido)butanamido]ethoxy}ethoxy)acetamido]ethoxy}ethoxy)acetamido]-[4A,7K,9E,12T,13A,18Q,22V,28Y,30W,31L]hPYY (4-36)], the inhibition constant (Ki) is 20.3 nM.

In the case of `CC(C)CC(=O)N[C@@H](C)C(=O)N1CCC[C@H]1C(=O)N[C@@H](CCC(=O)O)C(=O)N[C@@H](CCCCNC(=O)COCCOCCNC(=O)COCCOCCNC(=O)CC[C@H](NC(=O)CCCCCCCCCCCCCCCCC(=O)O)C(=O)O)C(=O)N1CCC[C@H]1C(=O)N[C@@H](CCC(=O)O)C(=O)N[C@@H](CCC(=O)O)C(=O)N[C@@H](CCC(=O)O)C(=O)N[C@H](C(=O)N[C@@H](CO)C(=O)N1CCC[C@H]1C(=O)N[C@@H](CCC(=O)O)C(=O)N[C@@H](CCC(=O)O)C(=O)N[C@@H](CC(C)C)C(=O)N[C@@H](CCC(N)=O)C(=O)N[C@@H](CCCNC(=N)N)C(=O)N[C@@H](Cc1ccc(O)cc1)C(=O)N[C@@H](Cc1ccc(O)cc1)C(=O)N[C@H](C(=O)N[C@@H](CO)C(=O)N[C@@H](CC(C)C)C(=O)N[C@@H](CCCNC(=N)N)C(=O)N[C@@H](Cc1c[nH]cn1)C(=O)N[C@@H](Cc1ccc(O)cc1)C(=O)N[C@@H](Cc1ccc(O)cc1)C(=O)N[C@@H](CC(N)=O)C(=O)N[C@@H](Cc1c[nH]c2ccccc12)C(=O)N[C@@H](CC(C)C)C(=O)N[C@H](C(=O)N[C@@H](CCCNC(=N)N)C(=O)N[C@@H](CCC(N)=O)C(=O)N[C@@H](CCCNC(=N)N)C(=O)N[C@@H](Cc1ccc(O)cc1)C(N)=O)[C@@H](C)O)C(C)C)[C@@H](C)O` [Compound 213, N{alpha-4}-(3-methylbutanoyl)-N{epsilon-7}-[2-(2-{2-[2-(2-{2-[(4S)-4-carboxy-4-(17-carboxyheptadecanamido)butanamido]ethoxy}ethoxy)acetamido]ethoxy}ethoxy)acetamido]-[4A,7K,9E,11E,12T,18Q,22V,28Y,30W,31L]hPYY (4-36)] (Isovaleryl-APEK([AEEA-AEEA-γGlu-C18 diacid])PEEETSPEELQRYYVSLRHYYNWLTRQRY-NH2), the Ki is 6.54 nM.

In the case of `CC(C)CC(=O)N[C@@H](C)C(=O)N1CCC[C@H]1C(=O)N[C@@H](CCC(=O)O)C(=O)N[C@@H](CCCCNC(=O)COCCOCCNC(=O)COCCOCCNC(=O)CC[C@H](NC(=O)CCCCCCCCCCCCCCCCC(=O)O)C(=O)O)C(=O)N1CCC[C@H]1C(=O)N[C@@H](CCC(=O)O)C(=O)N[C@@H](CCC(=O)O)C(=O)N[C@@H](CC(=O)O)C(=O)N[C@@H](C)C(=O)N[C@@H](CO)C(=O)N1CCC[C@H]1C(=O)N[C@@H](C)C(=O)N[C@@H](CCC(=O)O)C(=O)N[C@@H](CC(C)C)C(=O)N[C@@H](CCC(N)=O)C(=O)N[C@@H](CCCNC(=N)N)C(=O)N[C@@H](Cc1ccc(O)cc1)C(=O)N[C@@H](Cc1ccc(O)cc1)C(=O)N[C@H](C(=O)N[C@@H](CCC(=O)O)C(=O)N[C@@H](CC(C)C)C(=O)N[C@@H](CCCNC(=N)N)C(=O)N[C@@H](Cc1c[nH]cn1)C(=O)N[C@@H](Cc1ccc(O)cc1)C(=O)N[C@@H](Cc1ccc(O)cc1)C(=O)N[C@@H](CC(N)=O)C(=O)N[C@@H](Cc1c[nH]c2ccccc12)C(=O)N[C@@H](CC(C)C)C(=O)N[C@H](C(=O)N[C@@H](CCCNC(=N)N)C(=O)N[C@@H](CCC(N)=O)C(=O)N[C@@H](CCCNC(=N)N)C(=O)N[C@@H](Cc1ccc(O)cc1)C(N)=O)[C@@H](C)O)C(C)C` [Compound 215, N{alpha-4}-(3-methylbutanoyl)-N{epsilon-7}-[2-(2-{2-[2-(2-{2-[(4S)-4-carboxy-4-(17-carboxyheptadecanamido)butanamido]ethoxy}ethoxy)acetamido]ethoxy}ethoxy)acetamido]-[4A,7K,9E,15A,18Q,22V,23E,28Y,30W,31L]hPYY (4-36)], the Ki was 0.48 nM.

Take `CC(C)CC(=O)N[C@@H](C)C(=O)N1CCC[C@H]1C(=O)N[C@@H](C)C(=O)N[C@@H](CCCCNC(=O)COCCOCCNC(=O)COCCOCCNC(=O)CC[C@H](NC(=O)CCCCCCCCCCCCCCCCC(=O)O)C(=O)O)C(=O)N1CCC[C@H]1C(=O)N[C@@H](CCC(=O)O)C(=O)N[C@@H](CCC(=O)O)C(=O)N[C@@H](CC(=O)O)C(=O)N[C@@H](C)C(=O)N[C@@H](CO)C(=O)N1CCC[C@H]1C(=O)N[C@@H](CCC(=O)O)C(=O)N[C@@H](CCC(=O)O)C(=O)N[C@@H](CC(C)C)C(=O)N[C@@H](CCC(=O)O)C(=O)N[C@@H](CCC(N)=O)C(=O)N[C@@H](Cc1ccc(O)cc1)C(=O)N[C@@H](Cc1ccc(O)cc1)C(=O)N[C@H](C(=O)N[C@@H](CO)C(=O)N[C@@H](CC(C)C)C(=O)N[C@@H](CCCNC(=N)N)C(=O)N[C@@H](Cc1c[nH]cn1)C(=O)N[C@@H](Cc1ccc(O)cc1)C(=O)N[C@@H](Cc1ccc(O)cc1)C(=O)N[C@@H](CC(N)=O)C(=O)N[C@@H](Cc1c[nH]c2ccccc12)C(=O)N[C@@H](CC(C)C)C(=O)N[C@H](C(=O)N[C@@H](CCCNC(=N)N)C(=O)N[C@@H](CCC(N)=O)C(=O)N[C@@H](CCCNC(=N)N)C(=O)N[C@@H](Cc1ccc(O)cc1)C(N)=O)[C@@H](C)O)C(C)C` [Compound 216, N{alpha-4}-(3-methylbutanoyl)-N{epsilon-7}-[2-(2-{2-[2-(2-{2-[(4S)-4-carboxy-4-(17-carboxyheptadecanamido)butanamido]ethoxy}ethoxy)acetamido]ethoxy}ethoxy)acetamido]-[4A,6A,7K,9E,18E,19Q,22V,28Y,30W,31L]hPYY (4-36)] (Isovaleryl-APAK([AEEA-AEEA-γGlu-C18 diacid])PEEDASPEELEQYYVSLRHYYNWLTRQRY-NH2): the inhibition constant Ki worked out at 0.93 nM.
